Data taken from patent publication US9289430B2, “Compounds and methods for inhibiting phosphate transport” (Ardelyx, Inc., priority 2010, dated 2016).

Assays:
[1] = molecular target: T1, rat NaP2b (SLC34A2) (Rattus norvegicus, UniProt Q9JJ09); test: NaP2b-mediated Pi transport: 33P phosphate uptake into transfected HEK293 cells; format: cell-based; conditions: 100 uM KH2PO4, PiT-silencing agent, read-out: pIC50 range for rat Nap2b (converted)
T1 construct: host or cells: HEK293
T1 sequence (Q9JJ09 1-695): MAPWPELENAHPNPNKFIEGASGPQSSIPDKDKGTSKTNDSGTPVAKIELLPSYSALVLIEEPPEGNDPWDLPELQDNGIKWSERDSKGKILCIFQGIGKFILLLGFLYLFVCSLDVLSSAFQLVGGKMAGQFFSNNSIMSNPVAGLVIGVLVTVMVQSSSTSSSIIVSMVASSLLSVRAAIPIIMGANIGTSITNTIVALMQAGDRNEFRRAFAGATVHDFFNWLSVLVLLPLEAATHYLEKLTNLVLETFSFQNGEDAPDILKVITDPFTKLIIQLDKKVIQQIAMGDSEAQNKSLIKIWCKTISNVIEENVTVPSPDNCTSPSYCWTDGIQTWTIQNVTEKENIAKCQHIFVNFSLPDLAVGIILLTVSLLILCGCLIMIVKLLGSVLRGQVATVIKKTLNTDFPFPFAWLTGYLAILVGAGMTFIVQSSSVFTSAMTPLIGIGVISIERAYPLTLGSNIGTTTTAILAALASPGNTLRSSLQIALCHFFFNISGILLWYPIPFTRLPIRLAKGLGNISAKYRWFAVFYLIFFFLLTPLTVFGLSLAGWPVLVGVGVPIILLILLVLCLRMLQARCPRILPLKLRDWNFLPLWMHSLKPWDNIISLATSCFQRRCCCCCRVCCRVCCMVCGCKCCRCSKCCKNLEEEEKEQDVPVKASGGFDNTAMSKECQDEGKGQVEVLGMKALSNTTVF
Description: Materials. HEK293 cells were obtained from the American Type Culture collection and propagated per their instructions. Expression clones for rat and human NaP2b (SLC34A2) were obtained from Open Biosystems (Catalog numbers MRN1768-9510282, and MHS1010-99823026, respectively). The sequence of the human protein was mutated to insert a threonine after residue 37, and to introduce a N39D mutation.
Inhibition of Pi Transport. The rate of phosphate (Pi) uptake into HEK293 cells was measured using a modification of the method described by Mohrmann et al. (Mohrmann, I., Mohrmann, M., Biber, J., and Murer, H. (1986) Am. J. Phys. 250(3 Pt 1):G323-30.) Transfected HEK293 cells were treated with a pharmacological agent to minimize endogenous PiT-mediated phosphate transport activity, such that the only remaining sodium-dependent phosphate transport activity is that which was bestowed by introduction of the NaP2b genes.
Cells were seeded into 96-well plates at 25,000 cells/well and cultured overnight. Lipofectamine 2000 (Invitrogen) was used to introduce the NaP2b cDNA, and the cells were allowed to approach confluence during a second overnight incubation. […] Cells were then overlayed with either choline uptake buffer or sodium uptake buffer (14 mM Tris, 137 mM sodium chloride, 5.4 mM KCl, 2.8 mM CaCl2, 1.2 mM MgSO4, 100 uM KH2PO4, PiT-silencing agent, 1 mg/mL Bovine Serum Albumin, pH 7.4) containing 6-9 uCi/mL ^33P orthophosphoric acid (Perkin Elmer) and test compound. Each compound was tested at twelve concentrations ranging from 0.1 nM to 30 uM. Assays were run in duplicate.
After incubation for 3-30 minutes at room temperature, assay mixtures were removed, and the cells were washed twice with ice cold stop solution (137 mM sodium chloride, 14 mM Tris, pH 7.4). Cells were lysed by addition of 20 μL 0.1% Tween 80 followed by 100 μL scintillation fluid, and counted using a TopCount (Perkin Elmer).
pIC50 (the negative log of the IC50) values of the test compounds were calculated using GraphPad Prism.

[2] = human absorption data, from Ertl et al., J. Med. Chem. 2000; cited from earlier work

IC50 [1] [µM] | SMILES | % FA [2] [%]
1 to 7.94 | Cc1ccc(-n2ccc(NC(=O)c3cc(N4CCCCC4)ccc3NC(=O)c3cccc(CSCCC(=O)O)c3)n2)cc1C [Example 5, 3-((3-((2-((1-(3,4-Dimethylphenyl)-1H-pyrazol-3-yl)carbamoyl)-4-(piperidin-1-yl)phenyl)carbamoyl)benzyl)thio)propanoic acid] | –
10 to 31.6 | CCN(CC)CCN(C)Cc1ccc(C(=O)Nc2ccc(N3CCCCC3)cc2C(=O)Nc2ccn(-c3cccc(C(F)(F)F)c3)n2)cc1 [Example 9, 2-(4-(((2-(diethylamino)ethyl)(methyl)amino)methyl)benzamido)-5-(piperidin-1-yl)-N-(1-(3-(trifluoromethyl)phenyl)-1H-pyrazol-3-yl)benzamide] | –
1 to 7.94 | Cc1ccc(-n2ccc(NC(=O)c3cc(Cl)ccc3NC(=O)c3cccc(CSCCC(=O)O)c3)n2)cc1C [Example 4, 3-((3-((4-Chloro-2-((1-(3,4-dimethylphenyl)-1H-pyrazol-3-yl)carbamoyl)phenyl)carbamoyl)benzyl)thio)propanoic acid] | –
1 to 7.94 | O=C(NCCOCCO)c1cccc(C(=O)Nc2ccc(N3CCCCC3)cc2C(=O)Nc2ccn(-c3cccc(C(F)(F)F)c3)n2)c1 [Example 13, N1-(2-(2-Hydroxyethoxyl)ethyl)-N3-(4-(piperidin-1-yl)-2-((1-(3-(trifluoromethyl)phenyl)-1H-pyrazol-3-yl)carbamoyl)phenyl)isophthalamide] | –
1 to 7.94 | O=C(O)c1ccc(SCc2cccc(C(=O)Nc3ccc(N4CCCCC4)cc3C(=O)Nc3ccn(-c4cccc(C(F)(F)F)c4)n3)c2)cc1 [Example 21, 4-((3-((4-(piperidin-1-yl)-2-((1-(3-(trifluoromethyl)phenyl)-1H-pyrazol-3-yl)carbamoyl)phenyl)carbamoyl)benzyl)thio)benzoic acid] | –
– | NC[C@H]1CC[C@H](C(=O)O)CC1 [tranexamic acid] | 55
– | OC[C@H]1O[C@H](OC[C@H]2O[C@H](O[C@]3(CO)O[C@H](CO)[C@@H](O)[C@@H]3O)[C@H](O)[C@@H](O)[C@@H]2O)[C@H](O)[C@@H](O)[C@H]1O [raffinose] | 0.3
1 to 7.94 | CN(CCOCCOCCOCCC(=O)O)Cc1cccc(C(=O)Nc2ccc(N3CCCCC3)cc2C(=O)Nc2ccn(-c3cccc(C(F)(F)F)c3)n2)n1 [Example 8, 2-methyl-1-(6-((4-(piperidin-1-yl)-2-((1-(3-(trifluoromethyl)phenyl)-1H-pyrazol-3-yl)carbamoyl)phenyl)carbamoyl)pyridin-2-yl)-5,8,11-trioxa-2-azatetradecan-14-oic acid] | –
– | CC(=O)Nc1ccc(OCC(O)CNC(C)C)cc1 (centres unmarked) [practolol] | 95
10 to 31.6 | CCN(CC)CCN(C)Cc1cccc(C(=O)Nc2ccc(N3CCCCC3)cc2C(=O)Nc2ccn(-c3cccc(C(F)(F)F)c3)n2)c1 [Example 12, 2-(3-(((2-(Diethylamino)ethyl)(methyl)amino)methyl)benzamido)-5-(piperidin-1-yl)-N-(1-(3-(trifluoromethyl)phenyl)-1H-pyrazol-3-yl)benzamide] | –
1 to 7.94 | COCCNC(=O)CCN(C)Cc1cccc(C(=O)Nc2ccc(N3CCCCC3)cc2C(=O)Nc2ccn(-c3cccc(C(F)(F)F)c3)n2)c1 [Example 16, 2-(3-(((3-((2-methoxyethyl)amino)-3-oxopropyl)(methyl)amino)methyl)-benzamido)-5-(piperidin-1-yl)-N-(1-(3-(trifluoromethyl)phenyl)-1H-pyrazol-3-yl)-benzamide] | –
1 to 7.94 | CN(CCN1CCOCC1)C(=O)c1cccc(C(=O)Nc2ccc(N3CCCCC3)cc2C(=O)Nc2ncn(-c3cccc(C(F)(F)F)c3)n2)c1 [Example 2, N1-Methyl-N1-(2-morpholinoethyl)-N3-(4-(piperidin-1-yl)-2-((1-(3-(trifluoromethyl)phenyl)-1H-1,2,4-triazol-3-yl)carbamoyl)phenyl)isophthalamide] | –
– | C=CCc1ccccc1OCC(O)CNC(C)C (centres unmarked) [alprenolol] | 96
– | O=C(O)P(=O)(O)O [foscarnet] | 17
– | CC(C)NCC(O)COc1cccc2[nH]ccc12 (centres unmarked) [pindolol] | 92
– | OC[C@H]1O[C@@H](O[C@@H]2[C@@H](CO)OC(O)(CO)[C@H]2O)[C@H](O)[C@@H](O)[C@H]1O (mixture of isomers) [lactulose] | 0.6
1 to 7.94 | O=C(NCCOCCO)c1cccc(C(=O)Nc2ccc(N3CCCCC3)cc2C(=O)Nc2cn(-c3cccc(C(F)(F)F)c3)cn2)c1 [Example 10, N1-(2-(2-Hydroxyethoxyl)ethyl)-N3-(4-(piperidin-1-yl)-2-((1-(3-(trifluoromethyl)phenyl)-1H-imidazol-4-yl)carbamoyl)phenyl)isophthalamide] | –
1 to 7.94 | O=C(O)CCSCc1cccc(C(=O)Nc2ccc(Cl)cc2C(=O)Nc2ccn(-c3cccc(C(F)(F)F)c3)n2)c1 [Example 6, 3-((3-((4-Chloro-2-((1-(3-(trifluoromethyl)phenyl)-1H-pyrazol-3-yl)carbamoyl)phenyl)carbamoyl)benzyl)thio)propanoic acid] | –
< 1 | O=C(O)Cc1cccc(SCc2cccc(C(=O)Nc3ccc(Cl)cc3C(=O)Nc3ccn(-c4cccc(C(F)(F)F)c4)n3)c2)c1 [Example 24, 2-(3-((3-((4-chloro-2-((1-(3-(trifluoromethyl)phenyl)-1H-pyrazol-3-yl)-carbamoyl)phenyl)carbamoyl)benzyl)thio)phenyl)acetic acid] | –
< 1 | CN(CCN1CCOCC1)C(=O)c1cccc(C(=O)Nc2ccc(N3CCCCC3)cc2C(=O)Nc2nc(-c3cccc(C(F)(F)F)c3)cs2)c1 [Example 3, N1-Methyl-N1-(2-morpholinoethyl)-N3-(4-(piperidin-1-yl)-2-((4-(3-(trifluoromethyl)phenyl)thiazol-2-yl)carbamoyl)phenyl)isophthalamide] | –
– | O=C(O)c1cc(/N=N/c2ccc(S(=O)(=O)Nc3ccccn3)cc2)ccc1O [sulfasalazine] | 12
– | CCN1CCCC1CNC(=O)c1cc(S(N)(=O)=O)ccc1OC (centres unmarked) [sulpiride] | 36
– | OC[C@@H](O)[C@@H](O)[C@H](O)[C@H](O)CO [mannitol] | 26
– | Cc1ccccc1N1C(=O)c2cc(S(N)(=O)=O)c(Cl)cc2NC1C (centres unmarked) [metolazone] | 64
– | C=CCOc1ccccc1OCC(O)CNC(C)C (centres unmarked) [oxprenolol] | 97
– | O=C(O)c1cc(/N=N/c2ccc(O)c(C(=O)O)c2)ccc1O [olsalazine] | 2.3
